Results as given in EP3556767A1, “CELL PENETRATING PEPTIDES” (Universidade De Santiago De Compostela, priority 2018, dated 2019).
Values belong to the compound of their own block, whether it stands above or below them. Where a SMILES comes first, the peptide text is derived from it. The star is where a group is joined. 5TAMRA = CN(C)c1ccc2c(c1)Oc1cc(N(C)C)ccc1C21OC(=O)c2cc(C(=O)*)ccc21; X1 = O=C(CON=CCO[C@H]1O[C@H](CO)[C@@H](O)[C@H](O)[C@@H]1O)*; X2 = CC(C)=NOCC(=O)*; Ahx = NCCCCCC(=O)O

What was measured:
HeLa cells [1] = assay: Viability in the presence of saporin (MTT); format: cell-based; conditions: up to 30 µM, 1 h incubation, Figure 9
Experimental: Saporin (253 aa, 28 kDa) is a toxic protein from the group of the ribosome-inactivating proteins (RIP), which is not capable of reaching the cytosol by itself, although it can be passively internalized by pinocytosis if it is found in the culture medium, being retained in endosomes. Incubation of the cells with this protein in the presence of an endosomolytic agent causes the release of the protein to the cytosol and cell death.
For the experiment, HeLa cells were incubated in a 96-well plate with 10 µg/mL of saporin, and increasing concentrations of the P8 and R8 acetylated peptides.
The cells were co-incubated with the protein and peptide for 1 h in culture medium without serum or antibiotics, at which time the compounds were removed, washed and complete medium was added for 6 h, to allow the maturation of the endosomes and the escape of the toxin. At that time, MTT (tetrazolium salt) was added, cells were further incubated for 3 h, and the medium removed before solubilizing the formazan salt with DMSO. This viability test measures the reduction of MTT to formazan by mitochondrial activity, which can then be quantified by absorbance.

HeLa cells [2] = assay: Cell transport experiments (fluorescence microscopy, co-localization); format: cell-based; conditions: for transport of ConA: ConA labelled with Alexa Fluor-647
Experimental: HeLa cells growing on four chamber glass bottom dishes were washed with HEPES-Krebs-Ringer (HKR) buffer (5 mM HEPES, 137 mM NaCl, 2.68 mM KCI, 2.05 mM MgCl2, 1.8 mM CaCl2, pH 7.4) and nuclei were stained by incubation with 1 µM Hoechst 33342 in HKR for 30 min. The CPP and protein were diluted in HKR and incubated for 7 min at room temperature to allow the formation of the complexes. Cells were washed with HKR and incubated with the complexes for another 30 min. Cells were washed again to remove excess peptide before performing epifluorescence microscopy using a Nikon Eclipse Ti-E inverted microscope or confocal microscopy with a Leica SP5 microscope. Images were analyzed with ImageJ and the co-localization parameters (Manders coefficients) were calculated using the Coloc2 plugin selecting the Costes method of threshold regression.

endosomes = assay: Dextran escape from endosomes; format: cell-based; conditions: dextran 250 µg/ml; Figure 11
Experimental: Dextran is a polysaccharide (in this case labeled with a green fluorescent probe) known to internalize cells through the endocytic pathway. Thus, if the CPPs of the invention are capable of inducing release of dextrane from endosomes into the cytosol, the cell will display diffuse green fluorescence. The experiment was run by incubating dextran (250 µg/ml) in the presence of 5 µM of a CPP: (i) P8 marked with TAMRA, (ii) acetylated P8, and (iii) R8 as comparison.

[3] = test system: HeLa cells stably transfected with a plasmid carrying the LoxP-DsRED-STOP-LoxP-eGFP insert; assay: Cre recombinase protein cytosolic delivery (Cre Reporter system); format: cell-based; conditions: 1 µM Cre recombinase protein
Experimental: In order to further test the capabilities of the CPPs of the invention to release macromolecules into the cytosol, a Cre recombinase delivery assay was done in the presence of P8. HeLa cells stably transfected with a plasmid carrying the LoxP-DsRED-STOP-LoxP-eGFP insert (Cre Reporter system) were incubated with 1 µM Cre recombinase protein and CPPs P8 or R8 at different concentrations.
These cells express normally the dsRED protein (red fluorescence), but when the Cre recombinase protein removes the dsRED ORF by recombination, the eGFP gene (green fluorescence) is expressed instead. Thus, the percentage of cells expressing eGFP can be used as a measure of the percentage of cells where the Cre Recombinase had been effectively released into the cytosol.

[4] = Circular dichroism, percentage of helicity; format: physicochemical; conditions: 40°C; for % Helicity in Liposomes: egg yolk phosphatidylcholine liposomes
Experimental: Circular Dichroism (CD) measurements were performed with a Jasco J-1100 CD Spectrometer equipped with a Jasco MCB-100 Mini Circulation Bath for temperature control.
Circular dichroism measurements were carried out with the following settings: acquisition range: 300-190 nm; band width: 1.0 nm; accumulation: 3 scans; data pitch: 1 nm; CD scale 200 mdeg/1.0 dOD; D.I.T. (Data Integration Time): 1 s; scanning mode: continuous; scanning speed: 200 nm/min. Measurements were done from 10 °C to 60 °C (data interval: 10 °C; temp. gradient 5 °C/min) in a quartz cell of 0.2 cm path length at a final volume of 0.5 mL (H2O or TFE) with a final peptide concentration of 200 µM.
The results are expressed as the mean residue molar ellipticity [θ]MRt with units of degrees·cm^2.dmol^-1 and calculated using the equation S1.
The percentage of helicity was calculated using the equation S2. For the measurements in liposomes, samples were prepared by drying under reduced pressure L-α-phosphatidylcholine (16.7 µL, 25 mg/mL solution in CHCl3) and peptide (300 µL, 100 µM) in TFE to obtain a ratio lipid/peptide of 18:1 in a 10 mL round bottomed flask. The mixture was concentrated in a rotary evaporator to dryness, forming a film. The lipid/peptide mixture were suspended in HKR buffer (300 µL) to a final peptide concentration 100µM and sonicated for 45 min until a clear solution was obtained. Spectra were recorded in a 0.2 cm path length quartz cell. [formula]
Equation S1: Formula to calculate the ellipticity. θ is the ellipticity (mdeg), C is the peptide concentration (M) and I is the cell path length (cm). helicity % = (θMRt222nm−2340)/(30300) × 100 [formula]
Equation S2: Formula to calculate the percent of helicity in where the molar ellipticity at 222 nm is an absolute value.

HeLa cells [5] = assay: Quantification of the uptake by flow cytometry; format: cell-based; conditions: TAMRA labelled peptides, 1, 3, 5, 7, 10 µM; Figure 3
Experimental: For internalization standard assays we measured the amount of peptide fluorescence in cells by flow cytometry. Briefly, semiconfluent monolayers of HeLa cells seeded the day before were washed twice with HKR before incubation with different concentrations (1, 3, 5, 7, 10 µM) of TAMRA labelled peptides diluted in cell culture medium without serum for 1 hour at 37 °C . Then, cells were trypsinized with 100 µL of Trypsin-EDTA (Gibco) for 10 min at 37 °C, and trypsin neutralized with 100 µL of 2 % FBS in PBS with 5 mM EDTA. Pipetting broke cell clumps and the analysis was done in a Guava easyCyte™ cytometer. TAMRA levels were determined by excitation at 532 nm and detection at 575/25 nm. For the analysis, cells with typical FSC and SSC parameters were selected, and median fluorescence intensity was calculated for each sample. Data analysis was performed with InCyte software included in GuavaSoft 3.2 (Millipore).
The results of uptake of CPP P8 in HeLa, A-549 and SF9 are depicted in Figure 5: Uptake quantification by flow cytometry in three different cell lines: HeLa cells, A549 cells and Sf9 cells. Data points were collected in triplicate at six different concentrations (0, 1, 3, 5, 7, 10 µM). Cells were treated in DMEM (-) (HeLa, A549), or Sf-900-II (-) (Sf9) for 1 hour prior to trypsinization and cytometry quantification. Error bars indicate SD of three replicates.

[6] = co-localization of peptide and ConA

Compound: CC(C)C[C@H](NC(=O)c1ccc2c(c1)C(=O)OC21c2ccc(N(C)C)cc2Oc2cc(N(C)C)ccc21)C(=O)N[C@@H](CCCNC(=N)N)C(=O)N[C@@H](C)C(=O)N[C@@H](CC(C)C)C(=O)N[C@@H](C)C(=O)N[C@@H](C)C(=O)N[C@@H](CC(C)C)C(=O)N[C@@H](C)C(=O)N[C@@H](CCCNC(=N)N)C(=O)N[C@@H](C)C(=O)N[C@@H](C)C(=O)N[C@@H](C)C(=O)N[C@@H](C)C(=O)N[C@@H](C)C(=O)N[C@@H](C)C(=O)N[C@@H](CCCNC(=N)N)C(N)=O [P8, TmL R ALAALA R A6 R] (5TAMRA-LRALAALARAAAAAAR-NH2)
- toxicity to HeLa cells, peptide alone (HeLa cells [1]): little or no toxicity

Compound: CC(C)=NOCC(=O)NCCCC[C@H](NC(=O)[C@H](CCCNC(=N)N)NC(=O)CCCCCNC(=O)c1ccc2c(c1)C(=O)OC21c2ccc(N(C)C)cc2Oc2cc(N(C)C)ccc21)C(=O)N[C@@H](CC(C)C)C(=O)N[C@@H](CCCNC(=N)N)C(=O)N[C@@H](CCCNC(=N)N)C(=O)N[C@@H](CC(C)C)C(=O)N[C@@H](CC(C)C)C(=O)N[C@@H](CCCNC(=N)N)C(=O)N[C@@H](CCCNC(=N)N)C(=O)N[C@@H](CC(C)C)C(=O)N[C@@H](CCCCNC(=O)CON=C(C)C)C(=O)N[C@@H](CCCNC(=N)N)C(=O)N[C@@H](CC(C)C)C(N)=O [TmP(Acetone)2, reference compound] ({5TAMRA-Ahx}-RK(X2)LRRLLRRLK(X2)RL-NH2)
- transport of ConA (HeLa cells [2]): did not complex or transport ConA

Compound: CC(C)C[C@H](NC(=O)[C@H](CCCNC(=N)N)NC(=O)[C@H](CCCCNC(=O)CON=CCO[C@H]1O[C@H](CO)[C@@H](O)[C@H](O)[C@@H]1O)NC(=O)[C@H](CC(C)C)NC(=O)[C@H](CCCNC(=N)N)NC(=O)[C@H](CCCNC(=N)N)NC(=O)[C@H](CC(C)C)NC(=O)[C@H](CC(C)C)NC(=O)[C@H](CCCNC(=N)N)NC(=O)[C@H](CCCNC(=N)N)NC(=O)[C@H](CC(C)C)NC(=O)[C@H](CCCCNC(=O)CON=CCO[C@H]1O[C@H](CO)[C@@H](O)[C@H](O)[C@@H]1O)NC(=O)[C@H](CCCNC(=N)N)NC(=O)CCCCCNC(=O)c1ccc2c(c1)C(=O)OC21c2ccc(N(C)C)cc2Oc2cc(N(C)C)ccc21)C(N)=O [TmP(Man)2] ({5TAMRA-Ahx}-RK(X1)LRRLLRRLK(X1)RL-NH2)
- transport of ConA (HeLa cells [2]): the ConA cellular uptake was observed
- Manders coefficients (peptide and protein co-localization) (HeLa cells [2]; approximate value given in the text): ~0.6
- Manders' tM1 (Peptide) (HeLa cells [2]; [6]): 0.66
- Manders' tM2 (Protein) (HeLa cells [2]; [6]): 0.63

Compound: Ac-LRALAALARAAAAAAR-NH2 [acetylated P8, AcL R ALAALA R A6 R]
- concentration at which the peptide starts to release the dextran into the cytosol (endosomes): 10 µM
- peptide concentration at the maximum percentage of eGFP expressing cells [3]: 10 µM
- maximum percentage of eGFP expressing cells ([3]; Figure 10): 35%

- % Helicity in water [4]: 21.7%
- % Helicity in Liposomes [4]: 12.7%
Compound: TmHexA R AALLAA R AALA3 R [P3]

- % Helicity in water [4]: 35.1%
- % Helicity in Liposomes [4]: 29.9%
Compound: TmHexA R ALAALA R ALA4 R [P6]
- uptake in living HeLa cells (HeLa cells [5]): perform better in the uptake test

- % Helicity in water [4]: 19.3%
- % Helicity in Liposomes [4]: 29.5%
Compound: TmHexL R A5L R A5L R [P5]
- uptake in living HeLa cells (HeLa cells [5]): perform better in the uptake test
